Values quoted from earlier work in patent US7138151B2, “Calcium-fortified acidic beverages” (Unilab Pharmatech, Ltd., priority 2002, dated 2006).

Settings: initially clear metastable solution from citric acid and calcium base

O=C([O-])CC(O)(CC(=O)[O-])C(=O)[O-].O=C([O-])CC(O)(CC(=O)[O-])C(=O)[O-].[Ca+2].[Ca+2].[Ca+2] [in-situ solubilized calcium citrate, calcium citrate]
time at which calcium citrate starts to precipitate out of solution: ≤ 24 h
